According to patent publication US12128041B2, “Nanoparticles for delivering drug, whose surface is modified with peptide for targeting brain cancer, preparation method thereof and use thereof” (UNIVERSITY-INDUSTRY COOPERATION GROUP OF KYUNG HEE …, priority 2020, dated 2024):
Read-outs that look alike come from different tables or passages of the source. One block for each molecule: values may come before it. Where a SMILES comes first, the peptide text is derived from it.

Columns and labels:
[1] = mouse, in vivo
[2] = Passage through the blood-brain barrier, confocal microscopy of brain tissue sections; type: in vivo, mice; settings: brain removed 3 hours after tail vein injection of SIWV-TAMRA
U87MG cells [3] = experiment: Cytotoxicity in U87MG cells, WST-1 cell viability; type: cell-based, human; settings: 6 hours
Protocol: (§1) The present inventor conducted the following experiments to confirm the intracellular uptake efficiency and cytotoxicity of SIWV-pSiNP(SN-38). Specifically, U87MG cells were seeded into 96-well plates at a density of 10,000 cells/well and cultured under the conditions of 5% CO2 and 37° C. for 24 hours. Thereafter, the cells were treated with 100 μL of each of the SN-38 drug alone, pSiNPs, pSiNP(SN-38) and SIWV-pSiNP(SN-38) nanoparticles at a concentration of 6.25, 12.5, 25, 50, and 100 μM, respectively, and cultured for 6 hours. After 6 hours, in order to confirm the intracellular uptake efficiency, cell nuclei were stained by treating the cells with a 4′,6-diamino-2-phenylindole (DAPI) reagent for 10 minutes, and cell membranes were then stained by treating the cells with a CellMask™ Deep Red Plasma membrane stain reagent for 1 hour. After staining, the cells were washed three times with PBS and treated with 4% paraformaldehyde for 20 minutes to fix the cells, and then the cells were observed under a confocal microscope.
Meanwhile, after the cells were treated with SN-38 and each of the nanoparticles as described above and cultured for 6 hours, 10 μL of a 10% WST-1 reagent was added to each well and the cells were cultured for 2 hours. Thereafter, cell viability was analyzed by measuring the absorbance at 450 nm using a microplate reader, and the cell viability was analyzed using a relative percentage for U87MG cells not treated with nanoparticles.

U87MG cells [4] = experiment: Intracellular uptake in U87MG cells by confocal microscope; type: cell-based, human; settings: cultured for 6 hours
Protocol: as §1

[5] = In vivo distribution of TAMRA-labeled SIWV peptide in healthy mice by fluorescence signal; settings: tail vein injection

time of excretion from the body [1]: 24 h
passage through the blood-brain barrier [2]: passed through the blood-brain barrier
Compound: CC[C@H](C)[C@H](NC(=O)[C@@H](N)CO)C(=O)N[C@@H](Cc1c[nH]c2ccccc12)C(=O)N[C@H](C(=O)O)C(C)C [SIWV peptide] (H-SIWV-OH; N-terminus and C-terminus assumed)

Compound: CCc1c2c(nc3ccc(O)cc13)-c1cc3c(c(=O)n1C2)COC(=O)[C@]3(O)CC [SN-38, 7-ethyl-10-hydroxy-camptothecin]
cytotoxicity (toxicity of U87MG cells) (U87MG cells [3]; 6.5 μM): 12.4%
cytotoxicity (U87MG cells [3]; 100 μM): 55.4%
concentration dependence of toxicity (U87MG cells [3]; U87MG cells, 6.25 to 100 μM): increased toxicity as the treatment concentration was increased
intracellular uptake (U87MG cells [4]): intracellular uptake did not occur

Compound: CN(C)c1ccc2c(-c3ccccc3C(=O)[O-])c3ccc(N(C)C)cc3[o+]c2c1 [TAMRA, tetramethylrhodamine]
time of excretion from the body [5]: ≤ 2 h
